Test results: PMC12750388, “Coumarin-1,2,3-Triazole Conjugates as Molecular Scaffolds for the Selective Induction of ROS-Driven Apoptosis in Cancer Cells in the Development of Pyruvate Kinase M2 Inhibitors” (ACS Omega, 2025)

What was measured:
PKM2 = molecular target: T1, PKM2 (Homo sapiens, UniProt P14618); experiment: Quantification of ATP production from PKM2 reaction; format: biochemical; conditions: 1 × IC50 of 7f (55.13 μM)
T1 construct: purchased Sigma-Aldrich Co., St. Louis, MO, USA
Procedure: The measurement of PKM2 activity through ATP production was conducted to confirm whether the enzymatic inhibition observed in the previous assay was indeed due to PKM2. The master mix was prepared as indicated above. In a microtube containing the master mix prepared in the presence of 1 × IC50 7f, the control received the addition of 0.5 mM PEP for 3 min. Afterward, CellTiter-Glo reagent (Promega, Madison, WI, USA) was added as indicated by the manufacturer’s instructions, and the samples were kept shielded from light for 2 min. After the specified time, the sample was taken for reading in a Turner Designs TD 2020 luminometer (Turner Designs, Sunnyvale, CA, USA).

SCC-4 = experiment: MTT cell viability assay, SCC-4; format: cell-based, human
Procedure: The viability of SCC cell lines and primary human fibroblast cells was evaluated using the MTT assay to determine half maximal inhibitory concentration (IC50). Briefly, cells were grown in triplicate in 96-well plates (5 × 10^3 cells/well) until confluence. Then the medium was removed, fresh medium was added, and the cells were returned to the incubator in the presence of different compounds. DMSO at the same concentrations was used as a 100% cell viability control. After 48 h, cells were incubated with 5 mg/mL MTT reagent (3-(4,5-dimethyl-2-thiazolyl)-2,5-diphenyl-2-H-tetrazolium bromide) (Sigma-Aldrich Co., St. Louis, MO, USA) for 3.5 h. After that, formazan crystals were dissolved in MTT solvent solution (DMSO/methanol 1:1 v/v), and the absorbance at 560 nm was evaluated using an EPOCH microplate spectrophotometer (BioTek Instruments, Winooski, VT, USA) with the background absorbance at 670 nm subtracted. Each of the 12 compounds (7a–7l) was tested at six different concentrations, ranging from 6.25 to 200 μM in cancer and normal cell lines. Control (carboplatin) was tested at six different concentrations ranging from 25 μM to 800 μM in cancer cells and from 50 μM to 1600 μM in normal cells.
Half-maximal inhibitory concentration (IC50) values were obtained from the MTT assay of at least three independent replicates through nonlinear regression analysis using GraphPad Prism 5.0 software (Intuitive Software for Science, San Diego, CA, USA). Data were presented as means ± standard deviation (SD). A log dose–response curve (inhibitor vs response) using the least-squares method was used to determine the IC50 and SD from the data. The selectivity index (SI) was calculated as the ratio between the IC50 in normal cells and the IC50 in cancer cells, obtained by dividing the IC50 of normal cells by the IC50 of cancer cells.

SCC-9 cells = experiment: MTT cell viability with N-acetyl-L-cysteine pretreatment; format: cell-based, human; conditions: SCC-9, 48 h; 7f 1 × IC50, menadione 20 μM
Procedure: The production of reactive oxygen species (ROS) was assessed by the detection of hydrogen peroxide (H2O2) using the ROS-Glo H2O2 assay kit (Promega Corporation, Madison, WI, USA; G8820). […] A plate with wells without cells was used as a control. Cells and cell-free wells remained in treatment at times of interest, and 2 h before completion of the times, well volumes were removed to reduce to 40 μL per well. Then the positive control of menadione (Sigma-Aldrich Co., St. Louis, MO, USA), a polycyclic aromatic ketone based on 1,4-naphthoquinone, was used to treat its respective well, and H2O2 substrate from the kit was added for all treatments, followed by the incubation of the plate for the remaining 2 h. Then the detection solution was added, and the plates remained at room temperature for 20 min, following the reading in the TD 20/20 luminometer (Turner Designs, Sunnyvale, CA, USA). The reading of bioluminescence detected is indicated as arbitrary units (a.u.). Additionally, the cell viability was assessed through pretreatment of cells with 10 mM N-acetyl-L-cysteine (NAC) (Sigma-Aldrich Co., St. Louis, MO, USA) for 2 h. […] At the end of the time, the MTT cell viability assay was performed.

T1 sequence (P14618 whole entry): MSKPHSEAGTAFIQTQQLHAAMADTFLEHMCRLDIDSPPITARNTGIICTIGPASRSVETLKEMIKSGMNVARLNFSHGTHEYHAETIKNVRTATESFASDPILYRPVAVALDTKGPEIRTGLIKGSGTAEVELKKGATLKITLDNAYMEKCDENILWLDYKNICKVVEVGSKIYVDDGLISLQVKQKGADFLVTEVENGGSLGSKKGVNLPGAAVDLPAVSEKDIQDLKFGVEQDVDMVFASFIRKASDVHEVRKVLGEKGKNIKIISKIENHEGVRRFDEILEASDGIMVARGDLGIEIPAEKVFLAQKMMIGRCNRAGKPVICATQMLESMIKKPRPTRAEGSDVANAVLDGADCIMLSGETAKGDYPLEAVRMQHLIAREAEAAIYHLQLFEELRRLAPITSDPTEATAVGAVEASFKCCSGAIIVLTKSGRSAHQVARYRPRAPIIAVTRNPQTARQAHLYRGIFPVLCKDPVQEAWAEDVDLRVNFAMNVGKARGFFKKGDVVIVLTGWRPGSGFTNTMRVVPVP

O=C1C=C(OCc2cn(CCCOc3cc(=O)oc4ccccc34)nn2)C(=O)c2ccccc21 [Compound 7f, 2-((1-(3-((2-Oxo-2H-chromen-4-yl)oxy)propyl)-1H-1,2,3-triazol-4-yl)methoxy)naphthalene-1,4-dione]
inhibition at 55.13 µM (PKM2): ~50% | IC50 (SCC-4; Homo sapiens, SCC-4, MTT, 48 h): 7.93 µM | SI SCC-4 (SCC-4; IC50 human gingival fibroblast / IC50 SCC-4): 2.87 | cell viability in the presence of 10 mM N-acetyl-L-cysteine (NAC) (SCC-9 cells): NAC protected cell death
